ChEMBL document CHEMBL5291721, “A preclinical secondary pharmacology resource illuminates target-adverse drug reaction associations of marketed drugs” (Nat Commun, 2023)

Tests used:
Estrogen receptor = target: T1, Estrogen receptor (Homo sapiens, UniProt P03372)
T1 sequence (P03372 whole entry): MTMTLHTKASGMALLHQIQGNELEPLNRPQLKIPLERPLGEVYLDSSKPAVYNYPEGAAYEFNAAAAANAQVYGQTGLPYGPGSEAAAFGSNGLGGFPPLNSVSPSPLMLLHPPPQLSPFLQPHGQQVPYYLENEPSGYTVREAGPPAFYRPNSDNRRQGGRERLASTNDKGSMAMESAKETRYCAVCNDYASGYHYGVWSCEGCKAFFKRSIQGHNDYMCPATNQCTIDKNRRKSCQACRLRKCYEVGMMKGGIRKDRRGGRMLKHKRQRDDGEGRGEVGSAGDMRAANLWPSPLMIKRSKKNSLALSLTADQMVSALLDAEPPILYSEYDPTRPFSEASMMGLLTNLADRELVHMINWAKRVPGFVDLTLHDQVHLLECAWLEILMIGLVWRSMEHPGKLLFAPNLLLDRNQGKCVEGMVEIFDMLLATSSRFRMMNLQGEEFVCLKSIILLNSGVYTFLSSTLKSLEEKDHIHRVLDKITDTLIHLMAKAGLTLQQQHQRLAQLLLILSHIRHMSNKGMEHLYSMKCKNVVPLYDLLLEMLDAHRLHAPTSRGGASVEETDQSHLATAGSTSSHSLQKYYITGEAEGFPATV

[1] = target: T2, Alpha-1A adrenergic receptor (Homo sapiens, UniProt P35348); assay type: functional, cell-based
T2 sequence (P35348 whole entry): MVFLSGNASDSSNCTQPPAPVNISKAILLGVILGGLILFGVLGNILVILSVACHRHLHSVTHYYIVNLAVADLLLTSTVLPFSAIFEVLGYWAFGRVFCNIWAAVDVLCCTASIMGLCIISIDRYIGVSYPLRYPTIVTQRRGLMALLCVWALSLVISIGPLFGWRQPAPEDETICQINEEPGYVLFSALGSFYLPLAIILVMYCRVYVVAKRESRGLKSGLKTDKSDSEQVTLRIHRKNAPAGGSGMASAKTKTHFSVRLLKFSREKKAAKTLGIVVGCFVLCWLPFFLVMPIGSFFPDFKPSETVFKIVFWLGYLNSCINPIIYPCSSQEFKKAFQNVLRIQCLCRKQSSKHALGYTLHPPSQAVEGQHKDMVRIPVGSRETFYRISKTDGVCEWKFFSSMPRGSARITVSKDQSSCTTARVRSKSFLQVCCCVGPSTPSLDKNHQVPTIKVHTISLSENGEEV

[2] = target: T3, Muscarinic acetylcholine receptor M2 (Homo sapiens, UniProt P08172); assay type: functional, cell-based
T3 sequence (P08172 whole entry): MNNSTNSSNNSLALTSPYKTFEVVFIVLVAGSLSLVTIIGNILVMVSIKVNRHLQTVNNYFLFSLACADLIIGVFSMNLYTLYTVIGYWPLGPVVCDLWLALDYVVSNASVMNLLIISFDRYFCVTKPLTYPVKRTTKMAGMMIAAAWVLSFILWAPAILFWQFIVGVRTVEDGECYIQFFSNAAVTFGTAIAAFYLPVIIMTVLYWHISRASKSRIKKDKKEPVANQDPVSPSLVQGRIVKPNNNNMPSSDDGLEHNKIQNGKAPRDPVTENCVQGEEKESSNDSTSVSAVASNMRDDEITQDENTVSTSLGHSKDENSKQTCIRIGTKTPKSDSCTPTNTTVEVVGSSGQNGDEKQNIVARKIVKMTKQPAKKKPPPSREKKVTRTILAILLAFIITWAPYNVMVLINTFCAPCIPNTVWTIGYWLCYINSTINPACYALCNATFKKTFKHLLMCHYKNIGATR

[3] = target: T4, Equilibrative nucleoside transporter 1 (Homo sapiens, UniProt Q99808)
T4 sequence (Q99808 whole entry): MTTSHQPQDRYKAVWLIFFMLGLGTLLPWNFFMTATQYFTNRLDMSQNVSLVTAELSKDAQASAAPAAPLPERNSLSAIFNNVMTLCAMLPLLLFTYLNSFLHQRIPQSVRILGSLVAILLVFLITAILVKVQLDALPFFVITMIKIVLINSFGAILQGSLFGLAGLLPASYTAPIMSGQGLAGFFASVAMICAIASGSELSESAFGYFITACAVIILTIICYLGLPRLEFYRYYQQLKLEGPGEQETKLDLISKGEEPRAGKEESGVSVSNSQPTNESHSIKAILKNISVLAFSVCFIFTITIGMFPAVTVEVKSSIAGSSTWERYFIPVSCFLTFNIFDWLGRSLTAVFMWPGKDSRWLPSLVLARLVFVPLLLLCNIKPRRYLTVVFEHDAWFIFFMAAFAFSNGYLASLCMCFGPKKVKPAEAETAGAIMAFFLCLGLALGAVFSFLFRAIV

[4] = target: Gamma-aminobutyric acid receptor subunit alpha-1 (Rattus norvegicus, UniProt P62813)
Cannabinoid receptor 1 = Cannabinoid receptor 1 (Homo sapiens, UniProt P21554); assay type: functional, cell-based
[5] = target: Kappa-type opioid receptor (Homo sapiens, UniProt P41145)
[6] = target: Delta-type opioid receptor (Homo sapiens, UniProt P41143)
[7] = target: T5, Amine oxidase [flavin-containing] A (Homo sapiens, UniProt P21397); assay type: functional
T5 sequence (P21397 whole entry): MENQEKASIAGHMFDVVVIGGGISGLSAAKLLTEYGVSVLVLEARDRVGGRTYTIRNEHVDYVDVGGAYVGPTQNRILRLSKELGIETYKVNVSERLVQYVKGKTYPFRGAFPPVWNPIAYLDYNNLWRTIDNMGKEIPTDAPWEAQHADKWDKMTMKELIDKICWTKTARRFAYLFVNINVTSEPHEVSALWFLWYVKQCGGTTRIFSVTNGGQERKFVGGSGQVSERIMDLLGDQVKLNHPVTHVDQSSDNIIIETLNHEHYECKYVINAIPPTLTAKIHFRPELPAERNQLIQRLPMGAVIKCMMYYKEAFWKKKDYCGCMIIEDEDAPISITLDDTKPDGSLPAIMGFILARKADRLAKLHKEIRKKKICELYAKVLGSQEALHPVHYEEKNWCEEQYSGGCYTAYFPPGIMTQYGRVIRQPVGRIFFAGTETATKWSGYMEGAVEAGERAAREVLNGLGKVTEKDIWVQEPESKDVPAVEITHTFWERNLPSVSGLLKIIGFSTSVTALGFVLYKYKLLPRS

Motilin receptor = Motilin receptor (Homo sapiens, UniProt O43193)
Note: assay procedure not described here.

Chain of Motilin receptor (O43193 whole entry): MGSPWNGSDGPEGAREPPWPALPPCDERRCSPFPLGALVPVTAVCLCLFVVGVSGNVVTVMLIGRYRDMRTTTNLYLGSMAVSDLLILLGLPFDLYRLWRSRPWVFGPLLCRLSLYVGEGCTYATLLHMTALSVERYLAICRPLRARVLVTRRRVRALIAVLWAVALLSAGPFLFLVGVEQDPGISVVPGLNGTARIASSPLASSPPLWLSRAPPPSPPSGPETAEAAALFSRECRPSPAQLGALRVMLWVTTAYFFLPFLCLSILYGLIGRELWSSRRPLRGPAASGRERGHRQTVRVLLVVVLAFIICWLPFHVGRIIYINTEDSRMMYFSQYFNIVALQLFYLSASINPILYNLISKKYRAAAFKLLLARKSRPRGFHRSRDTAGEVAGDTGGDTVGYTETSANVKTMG
Chain of Delta-type opioid receptor (P41143 whole entry): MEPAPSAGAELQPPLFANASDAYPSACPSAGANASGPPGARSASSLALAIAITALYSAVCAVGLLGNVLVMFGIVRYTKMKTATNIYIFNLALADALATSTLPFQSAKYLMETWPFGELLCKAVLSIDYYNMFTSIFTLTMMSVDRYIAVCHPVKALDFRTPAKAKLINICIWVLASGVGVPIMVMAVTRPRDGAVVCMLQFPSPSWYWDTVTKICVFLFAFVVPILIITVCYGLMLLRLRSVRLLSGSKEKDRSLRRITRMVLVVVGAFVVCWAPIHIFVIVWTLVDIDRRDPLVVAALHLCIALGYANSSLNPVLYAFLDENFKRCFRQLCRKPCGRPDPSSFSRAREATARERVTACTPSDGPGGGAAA
Chain of Cannabinoid receptor 1 (P21554 whole entry): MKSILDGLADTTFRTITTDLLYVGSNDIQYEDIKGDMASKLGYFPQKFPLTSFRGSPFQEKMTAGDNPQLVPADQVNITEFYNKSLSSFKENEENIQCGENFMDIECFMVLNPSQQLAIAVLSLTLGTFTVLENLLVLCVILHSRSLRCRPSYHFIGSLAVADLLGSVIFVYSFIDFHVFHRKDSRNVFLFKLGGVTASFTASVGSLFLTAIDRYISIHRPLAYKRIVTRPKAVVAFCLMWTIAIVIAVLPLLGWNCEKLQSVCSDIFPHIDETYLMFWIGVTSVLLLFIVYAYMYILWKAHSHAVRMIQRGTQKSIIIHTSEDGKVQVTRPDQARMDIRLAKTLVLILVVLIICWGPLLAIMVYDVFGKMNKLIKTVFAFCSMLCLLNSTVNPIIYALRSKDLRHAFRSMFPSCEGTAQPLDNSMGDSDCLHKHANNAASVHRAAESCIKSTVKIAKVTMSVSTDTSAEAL
Chain of Gamma-aminobutyric acid receptor subunit alpha-1 (P62813 whole entry): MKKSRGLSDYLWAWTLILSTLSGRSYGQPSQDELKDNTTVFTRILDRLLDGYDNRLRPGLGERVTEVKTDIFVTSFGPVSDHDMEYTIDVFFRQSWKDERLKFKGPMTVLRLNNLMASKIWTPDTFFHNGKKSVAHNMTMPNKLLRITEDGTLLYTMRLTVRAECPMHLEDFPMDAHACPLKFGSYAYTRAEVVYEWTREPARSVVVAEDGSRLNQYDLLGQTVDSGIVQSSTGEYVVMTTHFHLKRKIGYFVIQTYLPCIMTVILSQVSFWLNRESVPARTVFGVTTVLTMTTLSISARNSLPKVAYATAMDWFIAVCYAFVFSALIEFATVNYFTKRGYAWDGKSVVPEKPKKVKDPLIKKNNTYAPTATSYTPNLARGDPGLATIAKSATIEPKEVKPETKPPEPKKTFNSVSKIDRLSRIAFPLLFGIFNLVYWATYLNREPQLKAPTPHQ
Chain of Kappa-type opioid receptor (P41145 whole entry): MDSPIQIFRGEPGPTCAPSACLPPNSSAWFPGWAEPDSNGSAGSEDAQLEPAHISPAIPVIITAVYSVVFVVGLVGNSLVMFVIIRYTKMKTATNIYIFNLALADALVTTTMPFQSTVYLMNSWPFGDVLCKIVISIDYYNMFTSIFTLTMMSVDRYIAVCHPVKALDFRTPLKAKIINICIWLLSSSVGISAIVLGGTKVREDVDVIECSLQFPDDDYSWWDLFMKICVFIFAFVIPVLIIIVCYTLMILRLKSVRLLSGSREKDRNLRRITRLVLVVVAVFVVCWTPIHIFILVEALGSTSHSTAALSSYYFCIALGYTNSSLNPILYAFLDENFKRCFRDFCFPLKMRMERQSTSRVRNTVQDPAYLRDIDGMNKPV

AC50 [3] [µM] | AC50 [6] [µM] | AC50 [7] [µM] | AC50 (Motilin receptor) [µM] | SMILES | AC50 (Estrogen receptor) [µM] | also measured
– | – | – | – | CC(=O)NCCCCCC(=O)O [ACEXAMIC ACID] | > 30 | –
– | – | – | – | C[C@H]1O[C@@H](O[C@H]2CC[C@@]3(C)[C@H](CC[C@@H]4[C@@H]3C[C@@H](O)[C@]3(C)[C@@H](C5=CC(=O)OC5)CC[C@]43O)C2)C[C@H](O)[C@@H]1O[C@H]1C[C@H](O)[C@H](O[C@H]2C[C@H](O)[C@H](O[C@@H]3O[C@H](CO)[C@@H](O)[C@H](O)[C@H]3O)[C@@H](C)O2)[C@@H](C)O1 [DESLANOSIDE] | > 30 | –
– | – | – | – | Cc1ccsc1C(=CCCN1CCC[C@@H](C(=O)O)C1)c1sccc1C [TIAGABINE] | > 30 | –
– | – | – | – | O=C(NNCS(=O)(=O)O)c1ccncc1 [METHANIAZIDE] | > 30 | –
– | – | – | – | Cc1cc(=O)[nH]c(=S)[nH]1 [METHYLTHIOURACIL] | > 30 | –
– | – | – | – | C[N+]1(C)CCCC(OC(=O)C(O)(c2ccccc2)c2ccccc2)C1 (stereo unspecified) [MEPENZOLATE] | > 30 | –
– | – | – | – | CCCCC(CC)CN1CN(CC(CC)CCCC)CC(C)(N)C1 (stereo unspecified) [HEXETIDINE] | > 30 | –
– | – | – | – | C[C@]12C=CC(=O)C=C1CC[C@H]1[C@@H]3C[C@@H](O)[C@](O)(C(=O)CO)[C@@]3(C)C[C@H](O)[C@@]12F [TRIAMCINOLONE] | > 30 | –
– | – | – | – | C[N+](C)(C)CCOC(=O)CCC(=O)OCC[N+](C)(C)C [SUXAMETHONIUM] | > 30 | –
– | – | – | – | C=CC(=O)Nc1cccc(Oc2nc(Nc3ccc(N4CCN(C)CC4)cc3)nc3ccsc23)c1 [OLMUTINIB] | 28.6 | –
– | – | – | – | C=C(C)CNc1ccc(C(C)C(=O)O)cc1 (stereo unspecified) [ALMINOPROFEN] | > 30 | –
> 30 | > 30 | 8 | > 30 | CN(CCOc1ccc(CC2SC(=O)NC2=O)cc1)c1ccccn1 (stereo unspecified) [ROSIGLITAZONE] | – | AC50 [1]: 11 µM; AC50 [2]: 22 µM; AC50 [4]: > 30 µM; AC50 (Cannabinoid receptor 1): > 30 µM; AC50 [5]: > 30 µM
> 30 | > 30 | 26 | > 30 | CC(C(=O)O)c1ccc2oc(-c3ccc(Cl)cc3)nc2c1 (stereo unspecified) [BENOXAPROFEN] | – | AC50 [1]: 23 µM; AC50 [2]: > 30 µM; AC50 [4]: > 30 µM; AC50 (Cannabinoid receptor 1): > 30 µM; AC50 [5]: > 30 µM
– | – | – | – | C[N+](C)(CCCCCC[N+](C)(C)C1c2ccccc2-c2ccccc21)C1c2ccccc2-c2ccccc21 [HEXAFLUORENIUM] | > 30 | –
– | – | – | – | CC(C)C(=O)Oc1ccc(CO)cc1[C@H](CCN(C(C)C)C(C)C)c1ccccc1 [FESOTERODINE] | > 30 | –
– | – | – | – | CC[C@H]1OC(=O)[C@H](C)[C@@H](O[C@H]2C[C@@](C)(OC)[C@@H](O)[C@H](C)O2)[C@H](C)[C@@H](O[C@@H]2O[C@H](C)C[C@H](N(C)C)[C@H]2O)[C@](C)(O)C[C@@H](C)[C@@H]2N[C@@H](COCCOC)O[C@H]([C@H]2C)[C@]1(C)O [DIRITHROMYCIN] | > 30 | –

AC50 [3] [µM] | AC50 [6] [µM] | AC50 [7] [µM] | AC50 (Motilin receptor) [µM] | SMILES | AC50 (Estrogen receptor) [µM] | also measured
> 10 | > 30 | > 10 | > 10 | CNC(=C[N+](=O)[O-])NCCSCc1csc(CN(C)C)n1 [NIZATIDINE] | – | AC50 [2]: > 10 µM; AC50 [4]: > 10 µM; AC50 [5]: > 10 µM
> 30 | > 30 | > 30 | > 30 | CCCCCCCN(CC)CCCC(O)c1ccc(NS(C)(=O)=O)cc1 (stereo unspecified) [IBUTILIDE] | – | AC50 [1]: > 30 µM; AC50 [2]: 22 µM; AC50 [4]: > 30 µM; AC50 [5]: > 30 µM
– | – | – | – | C[C@H]1CN(C[C@H](Cc2ccccc2)C(=O)NCC(=O)O)CC[C@@]1(C)c1cccc(O)c1 [ALVIMOPAN] | > 30 | –
– | – | – | – | CCNC(=O)/C=C(C)/C=C/C=C(C)/C=C/c1c(C)cc(OC)c(C)c1C [MOTRETINIDE] | 16.4 | –
> 10 | > 30 | > 10 | > 10 | CCCc1cc(=O)[nH]c(=S)[nH]1 [PROPYLTHIOURACIL] | – | AC50 [2]: > 10 µM; AC50 [4]: > 10 µM; AC50 [5]: > 10 µM
> 30 | > 30 | > 30 | > 30 | CNC[C@H](O)c1ccc(O)c(O)c1 [EPINEPHRINE] | – | AC50 [2]: > 30 µM; AC50 (Cannabinoid receptor 1): > 30 µM
> 30 | > 30 | > 30 | > 30 | Cn1cc(C(=O)[C@@H]2CCc3nc[nH]c3C2)c2ccccc21 [RAMOSETRON] | – | AC50 [1]: > 30 µM; AC50 [2]: > 30 µM; AC50 [4]: > 30 µM; AC50 (Cannabinoid receptor 1): > 30 µM; AC50 [5]: 17 µM
– | – | – | – | O=C(O)c1ccccc1 [BENZOIC ACID] | > 30 | –
– | – | – | – | C#C[C@]1(O)C=C[C@H]2[C@@H]3CCC4=CC(=O)CC[C@@H]4[C@H]3CC[C@@]21CC [GESTODENE] | 1.2 | –
– | – | – | – | CC1(C)O[C@@H]2C[C@H]3[C@@H]4C[C@H](F)C5=CC(=O)C=C[C@]5(C)[C@@]4(F)[C@@H](O)C[C@]3(C)[C@]2(C(=O)CO)O1 [FLUOCINOLONE ACETONIDE] | > 30 | –
– | – | – | – | CN(C)c1ccc(O)c2c1C[C@H]1C[C@H]3[C@H](N(C)C)C(O)=C(C(N)=O)C(=O)[C@@]3(O)C(O)=C1C2=O [MINOCYCLINE] | > 30 | –
– | – | – | – | Cc1ccc(C(=O)c2ccc(CC(=O)O)n2C)cc1 [TOLMETIN] | > 30 | –
> 10 | > 30 | > 10 | > 10 | COc1cc(C(=O)NS(=O)(=O)c2ccccc2C)ccc1Cc1cn(C)c2ccc(NC(=O)OC3CCCC3)cc12 [ZAFIRLUKAST] | – | AC50 [1]: 5.9 µM; AC50 [4]: > 10 µM; AC50 (Cannabinoid receptor 1): 30 µM; AC50 [5]: 6.32 µM
> 30 | > 30 | > 30 | > 30 | CC=CC1=C(C(=O)O)N2C(=O)[C@@H](NC(=O)[C@H](N)c3ccc(O)cc3)[C@H]2SC1 [CEFPROZIL] | – | AC50 [1]: > 30 µM; AC50 [2]: > 30 µM; AC50 [4]: > 30 µM; AC50 [5]: > 30 µM
> 30 | > 30 | > 30 | > 30 | CC(=O)Nc1ccc(CC(=O)O)cc1 [ACTARIT] | – | AC50 [1]: > 30 µM; AC50 [2]: > 30 µM; AC50 [4]: > 30 µM; AC50 (Cannabinoid receptor 1): > 30 µM; AC50 [5]: > 30 µM
